The text below walks through data of patent US6500819B2, “Bicyclolactam compounds, use thereof and intermediates for preparing thereof” (Taiho Pharmaceutical Company Limited, priority 1994, dated 2002).

Molecules are shown by their SMILES.

Data set [1] deals with ddY mice. Put plainly: Acute toxicity test (LD50), first part. In kind it is in vivo. Particulars: oral, male ddY mice, observed for 3 days.
Data set [2] deals with ddY mice. The data set can be described thus: Anticonvulsant effect (pentylenetetrazol-induced convulsion method), first part. Particulars: oral, dose of 300 mg/kg. It is filed as in vivo. The procedure:
Anticonvulsant Effect (Pentylenetetrazol-Induced Convulsion Method)
(§1) Compound 3, Compound 13, diazepam or buspirone was suspended in a 0.5 % sodium carboxymethyl cellulose solution, and the suspension was orally administered to 3- to 4-week-old male ddY mice (in groups of 6) in a volume of 10 ml/kg one hour before the start of experiment.
The test was conducted with reference to a method described in “Evaluation of Medicinal Efficacies (1), Pharmacological Test Method (1), Basic lectures on Development of Pharmaceuticals,” 167˜172(1971).

The subject of data set [3] is ddY mice. Put plainly: Effect on central nervous system depressant: ethanol enhancing method, first part. Particulars: mouse, in vivo, po, 300 mg/kg. The procedure:
(§2) Effect On Central Nervous System Depressant
(§3) b. Ethanol Enhancing Method
as §1
(§4) The test was conducted with reference to a method described in Japan. J. Pharmacol., 49, 337˜349(1989). More specifically, the group of mice were intraperitoneally given 25 % ethanol at a dose of 20 ml/kg and checked for the time interval between loss and recovery of the righting reflex.

Data set [4] deals with ddY mice. The data set can be described thus: Effect on central nervous system depressant: pentobarbital anesthetic method. The following applies: oral, mice; pentobarbital 40 mg/kg i.p. As to the method:
as §2
(§5) a. Pentobarbital Anesthetic Method
(§6) Compound 3, Compound 13, diazepam or buspirone was suspended in a 0.5 % sodium carboxymethyl cellulose solution, and the suspension was orally administered to 3- to 4-week-old male ddY mice (in groups of 5 to 10) in a volume of 10 ml/kg one hour before the start of experiment.
(§7) The test was conducted with reference to a method described in “Evaluation of Medicinal Efficacies (1), Pharmacological Test Method (1), Basic lectures on Development of Pharmaceuticals,” 144˜145(1971). More specifically, the group of mice were intraperitoneally given pentobarbital at a dose of 40 mg/kg and checked for sleeping time.

Data set [5] has as its system ddY mice. The data set can be described thus: Sedative effect (spontaneous locomotor activity), first part. The following applies: mouse, in vivo, po, 300 mg/kg. The procedure: (§8) Sedative Effect (Spontaneous Locomotor Activity)
(§9) Compound 3, Compound 13, diazepam or buspirone was suspended in a 0.5 % sodium carboxymethyl cellulose solution, and the suspension was orally administered to 3- to 4-week-old male ddY mice (in groups of 5) in a volume of 10 ml/kg one hour before the start of experiment.
(§10) The test was conducted with reference to a method described in “Evaluation of Medicinal Efficacies (1), Pharmacological Test Method (1), Basic Lectures on Development of Pharmaceuticals,” 50˜54(1971). More specifically, the group of mice were given the test drug and thereafter measured the amount of spontaneous locomotor activity for 10 minutes per mouse rising Animex MK-110 (product of Muromachi Kikai Co., Ltd.).

Data set [6] deals with Wistar rats. Put plainly: Anticonflict test (first part, Test Example 1). It is filed as in vivo. Particulars: for Frequency of water drinking behavior: 1 h before test, value relative to control = 100; for Anxiolytic effect in the anticonflict test (in words): oral, compounds at doses of 0.001 to 1.0 mg/kg. As to the method: (§11) Wistar rats (males weighing 140 to 160 g) were used for experiment in groups of 11 to 14.
The test compound, diazepam or buspirone was suspended in a 0.5 % sodiumn carboxymethyl cellulose solution, and the suspension was orally given to the animal in a volume of 5 mnl/kg one hour before the start of experiment.
With reference to a method described in “Process in Anxiolytics and Antidepresants,” ediled by Showa Ueki and Tatsuo Furukawa, Ishiyaku Shuppansha, 56-59 (1981) , the agents were tested using experimental boxes having a grid floor and a metal drinking tube in the floor. No water was supplied to the rats for 48 hours before the experiment. Upon lapse of first 24 hours, each group of rats were placed into the experimental box, permitted access to water for 30 seconds and caused to recognize the metal drinking tube. Upon lapse of further 24 hours with access to water prevented, the rats were placed into the box again and permitted access to water on condition that an electric current was passed between the metal drinking tube and the grid to give an electroshock for every 20 times of water drinking behavior to measure the frequency of water drinking behavior for 3 minutes.
The frequency is expessed by a value relative to the frequency of the control which is taken as 100.

Data set [7] concerns ddY mice. The data set can be described thus: Muscle relaxant effect (traction method), first part. Particulars: mouse, in vivo, po, 300 mg/kg. The procedure:
(§12) Muscle Relaxant Effect (Traction Method)
as §9
(§13) With reference to a method described in Japan. J. Pharmacol., 49. 337˜349(1989), the foreleg of the mouse was hung on a horizontal wire, having a diameter of 1.2 mm and fixed at a level of 30 cm, three times consecutively. […] Thus, ED5 0 was determined for evaluation. […] Diazepam and buspirone were 2.2 mg/kg and 427.8 mg/kg, respectively, in ED5 0.

Data set [8] relates to ddY mice. Put plainly: Anticonvulsant effect (pentylenetetrazol-induced convulsion method), second part. In kind it is in vivo. Particulars: Mus musculus, 1 h, read-out: ED50, anticonvulsant effect (no death within 60 minutes). As to the method:
Anticonvulsant Effect (Pentylenetetrazol-induced Convulsion Method)
Compound 1′a-1, the comparison compound, diazepam or j buspirone was suspended, in a 0.5% sodium carboxymethyl cellulose solution, and the suspension was orally administered to 3- to 4-week-old maple ddY mice (in groups of 6) in a volume of 10 ml/kg one hour before the start of experiment.
The test was conducted with reference to a method described in “Evaluation of Medicinal Efficacies (1), Pharmacological Test Method (I), Basic Lectures on Development of Pharmaceuticals,” 167˜172(1971).

For data set [9], the system named is Wistar rats. Put plainly: Anticonflict test (second part, relieving rate of anxiety). It is filed as in vivo. The following applies: oral, dose of 1.0 mg/kg. The procedure: as §11
No water was supplied to the rats for 48 hours before the experiment. Upon lapse of first 24 hours, each group of rats were placed into the experimental box, permitted access to water for 30 seconds and caused to recognize the metal drinking tube. Upon lapse of further 24 hours with access to water prevented, the rats were placed into the box again and permitted access to water on condition that an electric current was passed between the metal drinking tube and the grid to give an electroshock for every 20 times of water drinking behavior to measure the frequency of water drinking behavior for 3 minutes. Anxiolytic effect was evaluated as relieving rate of anxiety as calculated by the following equation.

A short description of data set [10]: Effect on central nervous system depressant (ethanol enhancing method), second part. The following applies: male, ddY, mouse, in vivo. As to the method: Effect on central nervous system depressant (Ethanol enhancing method)
Compound 1′a-1, the comparison compound, diazepam or buspirone was suspended in a 0.5% sodium carboxymethyl cellulose solution, and the suspension was orally administered to 3- to 4-week-old male ddY mice (in groups of 6) in a volume of 10 ml/kg one hour before the start of experiment.
The test was conducted with reference to a method described in Japan. J. Pharmacol., 49, 337˜349(1989). More specifically, the group of mice were intraperitoneally given 25% ethanol at a dose of 20 ml/kg and checked for the time interval between loss and recovery of the righting reflex.

For data set [11], the system named is Wistar rats. Put plainly: Elevated plus maze test. The following applies: 1 h before test, relative to control = 100. In kind it is in vivo. The procedure:
Wistar rats (males weighing 170 to 220 g) were used for experiment in groups of 4 to 9.
The test compound, diazepam or buspirone was suspended in a 0.5 %) sodium carboxymethyl cellulose solution, and the suspension was orally given to the animal in a volume of 5 ml/kg one hour before the start of experiment.
The test was conducted using an experimental device, Model BTA-2, Behavior Analysis System (product of Muromachi Kikai Co., Ltd.) with reference to a method described in Psychopharmacology, 99, 48˜53(1989). […] Each group of rats orally given the test drug were placed in the center square, and the behavior of the animals was recorded for 5 minutes using a behavior analyzer. The ratio of the number of entries into the open arm to the number of entries into all the arms was determined for evaluating the anxiolytic effect.
The ratio of entries into the open arm is expressed by a value relative to the ratio attained by the control which is taken as 100.

The nature of data set [12]: Effect on central nervous system depressant: ethanol enhancing method, first part. The following applies: male, ddY, mouse, in vivo. The procedure: as §2, §3, §1, §4
The nature of data set [13]: Muscle relaxant effect (traction method), second part. Particulars: male, ddY, mouse, in vivo, po. The procedure: as §12
(§14) Compound 1′a-1, the comparison compound, diazepam or buspirone was suspended in a 0.5% sodium carboxymethyl cellulose solution, and the suspension was orally administered to 3- to 4-week-old male ddY mice (in groups of 5) in a volume of 10 ml/kg one hour before the start of experiment.
as §13

A short description of data set [14]: Effect on central nervous system depressant: pentobarbital anesthetic method. Particulars: male, ddY, mouse, in vivo. The procedure:
as §2, §5, §6, §7

Data set [15] is described as follows: Sedative effect (spontaneous locomotor activity), first part. The following applies: male, ddY, mouse, in vivo, po. As to the method: as §8, §9, §10
Data set [16] deals with ddY mice. Put plainly: Sedative effect (spontaneous locomotor activity), second part. Particulars: oral, mice, 1 h before test. The procedure: Sedative Effect (Spontaneous locomotor activity)
as §14
The test was conducted with reference to a method described in “Evaluation of Medicinal Efficacies (1), Pharmacological Test Method (I), Basic Lectures on Development of Pharmaceuticals,” 50˜54(1971). More specifically, the group of mice were given the test drug and thereafter measured the amount of spontaneous locomotor activity for 10 minutes per mouse using Animex MK-110 (Muromachi Kikai Co., Ltd.).

A short description of data set [17]: Muscle relaxant effect (traction method), first part. Particulars: male, ddY, mouse, in vivo, po. As to the method:
as §12, §9, §13

Regarding `COc1ccc(C(=O)N2C(=O)CCC3C(O)CCC32)cc1` (stereo not drawn) [Compound 13, γ-6,c-7-Hydroxy-2-(4-methoxybenzoyl)-2-azabicyclo-[4.3.0]nonan-3-one], in [1], the “Acute Toxicity LD50” value is reported as 3000< mg/kg. Further, the “Anticonvulsant effect (in words)” value in data set [2] is “no anticonvtilsant effect”. The “Ethanol enhancing effect (in words)” value in data set [3] is recorded as “no ethanol enhancing effect”. Besides, the “ED50, pentobarbital sleeping time in excess of twice control” value in data set [4] turned out to be 224.5 mg/kg. Besides, the “Sedative effect (in words)” value in [5] is “no sedative effect”. Besides, the Frequency of water drinking behavior is 130% in data set [6] (dose 0.001 mg/kg oral), 183% in [6] (dose 0.01 mg/kg oral), 177% in [6] (dose 0.1 mg/kg oral) and 169% in data set [6] (dose 1.0 mg/kg oral). Further, in data set [6], the “Anxiolytic effect in the anticonflict test (in words)” value is given as “increase in the frequency of water drinking behavior”. In addition, the “Muscle relaxant effect (in words)” value in [7] was “no muscle relaxant effect”.

Broadly, the ED50 is the dose at which the effect has come halfway, by size or by number of responders. As for `CN1C(=O)CN=C(c2ccccc2)c2cc(Cl)ccc21` [Diazepam, diazepam, reference compound], in [8], the 50% effective dose (ED50) was found to be 0.35 mg/kg. Also, the “Anxiolytic effect in the anticonflict test (in words)” value in data set [9] and in [6] was “almost ineffective” in each case. The ED50 at 1 h in [10] is 0.48 mg/kg; in data set [12], 0.48 mg/kg; in data set [13], 2.2 mg/kg; in [14], 0.53 mg/kg; in data set [15], 1.7 mg/kg; in [17], 2.2 mg/kg. The entries for the “Ratio of entries into open arm” value in data set [11] (dose 1.0 oral) and in [11] (dose 10.0 oral) were 103 and 144, respectively. The compound also showed a Frequency of water drinking behavior in data set [6] (dose 1.0 mg/kg oral) of 96%. Besides, the “ED6O, sedative effect (spontaneous locomotor activity up to 50% of control)” value in [16] is on record as 1.7 mg/kg.
